Patent publication US11633454B2, “Compositions and methods for treating metabolic diseases” (SHANGHAI HEP PHARMACEUTICAL CO., LTD., priority 2016, dated 2023)
One block for each molecule: values may come before it.

Tests used:
[1] = system: hyperlipidemic golden hamsters; experiment: Hyperlipidemic golden hamster model, 4 weeks of treatment; type: in vivo; settings: 50 mg/kg FENO po
[2] = system: Zucker Diabetic Fatty (ZDF) rats; experiment: Zucker Diabetic Fatty (ZDF) rats, 4 weeks of treatment (GLU, HbA1c, insulin, TC, TG, BUN, organ index, TBA); type: in vivo, rat
NTCP = molecular target: T1, NTCP (Homo sapiens, UniProt Q14973); experiment: In vitro bile acids assay (3H-TA uptake by NTCP-293 cells)
T1 sequence (Q14973 1-349): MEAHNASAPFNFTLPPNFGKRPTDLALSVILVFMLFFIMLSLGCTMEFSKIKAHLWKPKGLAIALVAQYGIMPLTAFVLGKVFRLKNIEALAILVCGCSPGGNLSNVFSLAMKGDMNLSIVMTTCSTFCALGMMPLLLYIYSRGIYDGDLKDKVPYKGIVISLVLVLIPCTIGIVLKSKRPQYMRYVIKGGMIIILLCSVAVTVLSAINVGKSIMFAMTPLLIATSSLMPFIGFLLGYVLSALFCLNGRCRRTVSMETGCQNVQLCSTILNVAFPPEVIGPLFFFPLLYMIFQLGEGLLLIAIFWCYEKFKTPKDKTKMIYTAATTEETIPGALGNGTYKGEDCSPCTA

[3] = 300 mg/kg Met, 2 weeks of dosing
[4] = 300 mg/kg Met, 4 weeks of dosing
[5] = ZDF rats, after 4 weeks of treatment, 300 mg/kg Met oral gavage, mean ± SEM

Compound: CC(C)OC(=O)C(C)(C)Oc1ccc(C(=O)c2ccc(Cl)cc2)cc1 [FENO, Fenofibrate]
- Serum TC (χ ± S) ([1]; 2 w of dosing): 6.63 ± 4.40 mmol/L
- Serum TG (χ ± S) ([1]; 2 w of dosing): 3.14 ± 0.4 mmol/L
- Serum TC (χ ± S) ([1]; 4 w of dosing): 7.42 ± 1.70 mmol/L
- Serum TG (χ ± S) ([1]; 4 w of dosing): 2.68 ± 0.30 mmol/L
- Serum HDL-C ([1]; 4 weeks post the treatment): 3.13 ± 0.30 mmol/L
- Serum LDL-C ([1]; 4 weeks post the treatment): 1.88 ± 0.40 mmol/L
- AI (atherosclerosis index) ([1]; 4 weeks, AI=(TC−HDL-C)/HDL-C): 1.36 ± 0.38
- Serum TC (χ ± S) ([1]; before dosing): 11.34 ± 0.50 mmol/L
- Serum TG (χ ± S) ([1]; before dosing): 6.16 ± 1.30 mmol/L

Compound: CN(C)C(=N)N=C(N)N [Met, Metformin]
- Fasting serum GLU (χ ± SEM) ([2]; 300 mg/kg Met oral gavage, 2 weeks of dosing): 7.98 ± 1.02 mmol/L
- Fasting serum GLU (χ ± SEM) ([2]; 300 mg/kg Met oral gavage, 4 weeks of dosing): 8.35 ± 0.58 mmol/L
- Fasting serum GLU (χ ± SEM) ([2]; 300 mg/kg Met oral gavage, week 0): 9.71 ± 0.96 mmol/L
- Serum BUN (χ ± SEM) [2, 3]: 6.58 ± 0.52 mM
- Serum TC (χ ± SEM) [2, 3]: 5.24 ± 0.35 mM
- HbA1c level (χ ± SEM) [2, 4]: 5.07 ± 0.23 %
- Serum BUN (χ ± SEM) [2, 4]: 7.09 ± 0.36 mM
- Serum TC (χ ± SEM) [2, 4]: 6.95 ± 0.54 mM
- HbA1c level (χ ± SEM) ([2]; 300 mg/kg Met, week 0): 6.25 ± 0.31%
- Serum BUN (χ ± SEM) ([2]; 300 mg/kg Met, week 0): 5.52 ± 0.21 mM
- Serum TC (χ ± SEM) ([2]; 300 mg/kg Met, week 0): 3.82 ± 0.11 mM
- Serum insulin (χ ± SEM) ([2]; 300 mg/kg Met, week 0): 6.74 ± 0.62 ng/mL
- Heart index (HI) vs model controls ([2]; MET 300 mg/kg, 4 weeks, FIG. 27A): had no effect on the HI values
- Total fat index (TFI) vs model controls ([2]; MET 300 mg/kg, 4 weeks, FIG. 27C): appeared to increase the TFI values
- Fasting serum GLU ([2]; MET positive control in the experiment with additional polypeptides, FIGS. 18A, 18B): significantly decreased fasting serum GLU
- Serum TBA level after weeks of dosing ([2]; ZDF rats, 300 mg/kg Met, week 0, mean ± SEM): 32.8 ± 12.3 µM
- Serum TBA level after weeks of dosing ([2]; ZDF rats, 300 mg/kg Met, week 2, mean ± SEM): 82.5 ± 27 µM
- Serum TBA level after weeks of dosing ([2]; ZDF rats, 300 mg/kg Met, week 4, mean ± SEM): 83 ± 15.8 µM
- Heart index [2, 5]: 3.63 ± 0.24 g/kg
- Kidney index [2, 5]: 7.26 ± 0.55 g/kg
- Total fat index [2, 5]: 94.64 ± 3.79 g/kg

- Effect on TA absorption (NTCP; 0.1 μmol/L, FIG. 5E): enhanced TA absorption
- Effect on TA absorption (NTCP; 20 μmol/L, FIG. 5F): enhanced TA absorption
Compound: C=C[C@H]1C[N@@]2CC[C@H]1C[C@@H]2[C@@H](O)c1ccnc2ccc(OC)cc12 [quinidine]
